Target: T1, kinases (Homo sapiens, UniProt P00519, F317L)
T1 construct: purchased Eurofins/DiscoveRx; host or cells: E. coli BL21-derived host (T7 phage display) for most kinases; HEK-293 for the rest
Experiment: KINOMEscan kinase binding assay (Eurofins/DiscoveRx), % Ctrl
Procedure, shortened: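 Read-out is qPCR of kinase eluted from ligand-coated streptavidin beads after 1 h room-temperature competition with test compound. Values are % Ctrl at the tested concentration, lower meaning tighter binding.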

[1] = 1 μM; ABL1(F317L)-nonphosphorylated
[2] = 1 μM; ABL1(F317L)-phosphorylated
[3] = target ABL1(F317L)-nonphosphorylated; 1 μM
[4] = target ABL1(F317L)-phosphorylated; 1 μM
[5] = 1 μM; target ABL1(F317L)-nonphosphorylated
[6] = 1 μM; target ABL1(F317L)-phosphorylated

T1 sequence (P00519 whole entry F317L): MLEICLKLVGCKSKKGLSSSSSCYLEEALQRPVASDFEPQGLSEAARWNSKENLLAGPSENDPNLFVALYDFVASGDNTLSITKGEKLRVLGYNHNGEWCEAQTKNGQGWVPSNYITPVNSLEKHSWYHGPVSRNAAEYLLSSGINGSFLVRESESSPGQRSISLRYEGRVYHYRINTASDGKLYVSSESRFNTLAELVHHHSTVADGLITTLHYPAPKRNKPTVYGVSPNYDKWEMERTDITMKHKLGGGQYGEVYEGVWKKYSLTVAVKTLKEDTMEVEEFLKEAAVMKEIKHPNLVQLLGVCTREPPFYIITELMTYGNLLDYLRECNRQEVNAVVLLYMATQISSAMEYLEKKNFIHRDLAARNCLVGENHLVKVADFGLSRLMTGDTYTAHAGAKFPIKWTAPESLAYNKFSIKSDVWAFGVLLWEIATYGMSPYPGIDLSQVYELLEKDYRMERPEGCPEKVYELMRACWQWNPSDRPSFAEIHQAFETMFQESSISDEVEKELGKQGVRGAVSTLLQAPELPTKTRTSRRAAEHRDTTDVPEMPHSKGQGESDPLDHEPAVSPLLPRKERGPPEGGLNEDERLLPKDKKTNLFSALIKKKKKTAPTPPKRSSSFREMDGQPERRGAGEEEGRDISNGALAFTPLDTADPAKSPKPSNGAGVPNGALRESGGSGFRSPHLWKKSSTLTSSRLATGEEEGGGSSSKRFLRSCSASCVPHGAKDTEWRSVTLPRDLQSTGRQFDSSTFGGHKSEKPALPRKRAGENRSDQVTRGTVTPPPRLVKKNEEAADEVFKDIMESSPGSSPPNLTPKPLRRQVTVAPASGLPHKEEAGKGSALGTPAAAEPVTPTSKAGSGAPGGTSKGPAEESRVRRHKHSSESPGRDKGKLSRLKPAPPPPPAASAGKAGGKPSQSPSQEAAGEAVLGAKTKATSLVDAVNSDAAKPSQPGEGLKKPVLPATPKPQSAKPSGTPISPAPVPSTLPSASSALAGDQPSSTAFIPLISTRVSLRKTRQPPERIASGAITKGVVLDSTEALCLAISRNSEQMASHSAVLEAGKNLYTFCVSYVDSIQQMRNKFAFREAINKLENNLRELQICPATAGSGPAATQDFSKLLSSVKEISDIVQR

% Ctrl, ABL1(F317L)-nonphosphorylated [1]	% Ctrl, ABL1(F317L)-phosphorylated [2]	also measured	SMILES
87 % Ctrl	100 % Ctrl		Cc1cc2c([nH]1)/C=C1\C(=O)Nc3ccc(cc31)CN(C)C(=O)COCCNC2=O [Ex.111, [17a(18)Z]-2,11-dimethyl-6,7,11,12-tetrahydro-1H-13,15-(ethanediylidene)dipyrrolo[3,2-f:3′,4′-i][1,4,14]oxadiazacyclohexadecine-4,10,17(5H,9H,16H)-trione]
		% Ctrl, ABL1(F317L)-nonphosphorylated [3]: 89 % Ctrl; % Ctrl, ABL1(F317L)-phosphorylated [4]: 89 % Ctrl	Cc1cc2c([nH]1)/C=C1\C(=O)Nc3ccc(cc31)-c1c(C)nn(C)c1COCCN(C)C2=O [Ex. 146, [3a(4)Z]-6,9,14,16-tetramethyl-10,11,13,14-tetrahydro-2H-1,17-(ethanediylidene)pyrazolo[4,3-m]dipyrrolo[3,2-f:3′,4′-i][1,4]oxazacyclopentadecine-3,8(5H,9H)-dione]
100 % Ctrl	100 % Ctrl		Cc1cc2c([nH]1)/C=C1\C(=O)Nc3cnc(nc31)N(C)CCCOCCN(C)C2=O [Ex.71, [17a(18)Z]-2,5,12-trimethyl-6,7,9,10,11,12-hexahydro-1H-13,15-(azenometheno)dipyrrolo[3,2-f:3′,4′-i][1,4,11,13]oxatriazacyclohexadecine-4,17(5H,16H)-dione]
12 % Ctrl	20 % Ctrl		Cc1cc2c([nH]1)/C=C1\C(=O)Nc3ccc(cc31)OCCOCCN(C)C2=O [Ex.91, [16a(17)Z]-2,5-dimethyl-6,7,9,10-tetrahydro-1H-12,14-(ethanediylidene)dipyrrolo[3,2-i:3′,4′-l][1,4,7]dioxazacyclopentadecine-4,16(5H,15H)-dione]
		% Ctrl, ABL1(F317L)-nonphosphorylated [5]: 41 % Ctrl; % Ctrl, ABL1(F317L)-phosphorylated [6]: 8.7 % Ctrl	Cc1cc2c([nH]1)/C=C1\C(=O)Nc3ccc(cc31)-c1cnn(C)c1OCCCN(C)C2=O [Ex. 166, [3a(4)Z]-9,14-dimethyl-9,10,11,12-tetrahydro-14H-1,17-(ethanediylidene)pyrazolo[4,3-n]dipyrrolo[3,2-g:3′,4′-j][1,5]oxazacyclopentadecine-3,8(2H,5H)-dione]
4.1 % Ctrl	0.8 % Ctrl		Cc1cc2c([nH]1)/C=C1\C(=O)Nc3ccc(cc31)-c1c(C)n[nH]c1CNCCN(C)C2=O [Ex. 127, [3a(4)Z]-6,9,16-trimethyl-9,10,11,12,13,14-hexahydro-1,17-(ethanediylidene)pyrazolo[4,3-m]dipyrrolo[3,2-f:3′,4′-i][1,4]diazacyclopentadecine-3,8(2H,5H)-dione]
93 % Ctrl	79 % Ctrl		Cc1cc2c([nH]1)/C=C1\C(=O)Nc3ccc(cc31)OCCOCCNC2=O [Ex. 129, [16a(17)Z]-2-methyl-6,7,9,10-tetrahydro-1H-12,14-(ethanediylidene)dipyrrolo[3,2-i:3′,4′-l][1,4,7]dioxazacyclopentadecine-4,16(5H,15H)-dione]
85 % Ctrl	58 % Ctrl		Cc1cc2c([nH]1)/C=C1\C(=O)Nc3ccc(cc31)-c1c(noc1C)COCCN(C)C2=O [Ex. 128, [3a(4)Z]-6,9,16-trimethyl-1,11-dihydro-2H,13H-1,17-(ethanediylidene)[1,4]oxazolo[4,3-m]dipyrrolo[3,2-f:3′,4′-i][1,4]oxazacyclopentadecine-3,8(5H,9H)-dione]
		% Ctrl, ABL1(F317L)-nonphosphorylated [5]: 93 % Ctrl; % Ctrl, ABL1(F317L)-phosphorylated [6]: 94 % Ctrl	Cc1cc2c([nH]1)/C=C1\C(=O)Nc3ccc(cc31)-c1c(noc1C(C)C)COCCN(C)C2=O [Ex. 161, [3a(4)Z]-9-methyl-16-(propan-2-yl)-10,11-dihydro-2H,13H-1,17-(ethanediylidene)[1,2]oxazolo[4,3-m]dipyrrolo[3,2-f:3′,4′-i][1,4]oxazacyclopentadecine-3,8(5H,9H)-dione]
6.5 % Ctrl	76 % Ctrl		Cc1cc2c([nH]1)/C=C1\C(=O)Nc3ccc(cc31)O[C@@H](C)COCCN(C)C2=O [Ex. 92, [10S,16a(17)Z]-2,5,10-trimethyl-6,7,9,10-tetrahydro-1H-12,14-(ethanediylidene)dipyrrolo[3,2-i:3′,4′-l][1,4,7]dioxazacyclopentadecine-4,16(5H,15H)-dione]
0 % Ctrl	1.3 % Ctrl		Cc1cc2c([nH]1)/C=C1\C(=O)Nc3cc(Cl)c(cc31)OCCOCCN(C)C2=O [Ex. 131, [16a(17)Z]-19-chloro-2,5-dimethyl-6,7,9,10-tetrahydro-1H-12,14-(ethanediylidene)dipyrrolo[3,2-i:3′,4′-l][1,4,7]dioxazacyclopentadecine-4,16(5H,15H)-dione]
		% Ctrl, ABL1(F317L)-nonphosphorylated [5]: 1.6 % Ctrl; % Ctrl, ABL1(F317L)-phosphorylated [6]: 1.3 % Ctrl	CN1CCOc2cc3c(cc2Cl)NC(=O)/C3=C\c2[nH]ccc2C(=O)N(C)CC1 [Ex. 164, [16a(17)Z]-19-chloro-2,5,8-trimethyl-5,6,7,8,9,10-hexahydro-12,14-(ethanediylidene)dipyrrolo[3,2-i:3′,4′-l][1,4,7]oxadiazacyclopentadecine-4,16(1H,15H)-dione]
		% Ctrl, ABL1(F317L)-nonphosphorylated [5]: 7.1 % Ctrl; % Ctrl, ABL1(F317L)-phosphorylated [6]: 1.9 % Ctrl	Cc1cc2c([nH]1)/C=C1\C(=O)Nc3cnc(cc31)-c1cnn(C)c1CN(C)CCN(C)C2=O [Ex. 172, [3a(4)Z]-6,9,12,14-tetramethyl-9,10,11,12,13,14-hexahydro-17,1-(azenometheno)pyrazolo[4,3-m]dipyrrolo[3,2-f:3′,4′-i][1,4]diazacyclopentadecine-3,8(2H,5H)-dione]
		% Ctrl, ABL1(F317L)-nonphosphorylated [5]: 0.6 % Ctrl; % Ctrl, ABL1(F317L)-phosphorylated [6]: 0.1 % Ctrl	Cc1cc2c([nH]1)/C=C1\C(=O)Nc3cc(Cl)c(cc31)SCCOCCN(C)C2=O [Ex. 169, [16a(17)Z]-19-chloro-5-methyl-6,7,9,10-tetrahydro-1H-12,14-(ethanediylidene)dipyrrolo[3,4-g:2′,3′-j][1,4,13]oxathiazacyclopentadecine-4,16(5H,15H)-dione]
82 % Ctrl	100 % Ctrl		Cc1cc2c([nH]1)/C=C1\C(=O)Nc3ccc(nc31)-c1ccccc1OCCCNC2=O [Ex.22, [3a(4)Z]-6-methyl-9,10,11,12-tetrahydro-1,18-(ethanediylidene)dipyrrolo[3,2-g:3′,4′-j][1,5,12]benzoxadiazacyclopentadecine-3,8(2H,5H)-dione]
77 % Ctrl	88 % Ctrl		Cc1cc2c([nH]1)/C=C1\C(=O)Nc3cc(Cl)c(cc31)OCCO[C@@H](C(=O)NC1CNC1)CN(C)C2=O [Ex. 133, [7R,16a(17)Z]-N-(azetidin-3-yl)-19-chloro-2,5-dimethyl-4,16-dioxo-4,5,6,7,9,10,15,16-octahydro-1H-12,14-(ethanediylidene)dipyrrolo[3,2-i:3′,4′-l][1,4,7]dioxazacyclopentadecine-7-carboxamide]
62 % Ctrl	57 % Ctrl		Cc1cc2c([nH]1)/C=C1\C(=O)Nc3cc(Cl)c(cc31)OCCO[C@@H](C(=O)NC1CCNCC1)CN(C)C2=O [Ex. 134, [7R,16a(17)Z]-19-chloro-2,5-dimethyl-4,16-dioxo-N-(piperidin-4-yl)-4,5,6,7,9,10,15,16-octahydro-1H-12,14-(ethaneidylidene)dipyrrolo[3,2-i:3′,4′-l][1,4,7]dioxazacyclopentadecine-7-carboxamide]
100 % Ctrl	100 % Ctrl		Cc1cc2c([nH]1)/C=C1\C(=O)Nc3cnc(cc31)-c1cnn(C)c1COCCNC2=O [Ex.123, [3a(4)Z]-6,14-dimethyl-10,11,13,14-tetrahydro-2H-17,1-(azenometheno)pyrazolo[4,3-m]dipyrrolo[3,2-f:3′,4′-i][1,4]oxazacyclopentadecine-3,8(5H,9H)-dione]
		% Ctrl, ABL1(F317L)-nonphosphorylated [3]: 4.3 % Ctrl; % Ctrl, ABL1(F317L)-phosphorylated [4]: 18 % Ctrl	CN1CCSCCOc2cc3c(cc2Cl)NC(=O)/C3=C\c2[nH]ccc2C1=O [Ex. 153]
1.7 % Ctrl	0 % Ctrl		Cc1cc2c([nH]1)/C=C1\C(=O)Nc3ccc(cc31)-c1cnn(C)c1CN(C)CCN(C)C2=O [Ex. 126, [3a(4)Z]-6,9,12,14-tetramethyl-9,10,11,12,13,14-hexahydro-1,17-(ethanediylidene)pyrazolo[4,3-m]dipyrrolo[3,2-f:3′,4′-i][1,4]diazacyclopentadecine-3,8(2H,5H)-dione]
78 % Ctrl	64 % Ctrl		CNC(=O)[C@H]1CN(C)C(=O)c2cc(C)[nH]c2/C=C2\C(=O)Nc3cc(Cl)c(cc32)OCCO1 [Ex. 135, [7R,16a(17)Z]-19-chloro-N,2,5-trimethyl-4,16-dioxo-4,5,6,7,9,10,15,16-octahydro-1H-12,14-(ethanediylidene)dipyrrolo[3,2-i:3′,4′-l][1,4,7]dioxazacyclopentadecine-7-carboxamide]
59 % Ctrl	44 % Ctrl		Cc1cc2c([nH]1)/C=C1\C(=O)Nc3cc(Cl)c(cc31)OCCO[C@@H](C(=O)N[C@@H]1CCNC1)CN(C)C2=O [Ex. 136, [7R,16a(17)Z]-19-chloro-2,5-dimethyl-4,16-dioxo-N-[(3R)-pyrrolidin-3-yl]-4,5,6,7,9,10,15,16-octahydro-1H-12,14-(ethanediylidene)dipyrrolo[3,2-i:3′,4′-l][1,4,7]dioxazacyclopentadecine-7-carboxamide]

From US20230257396A1, “MACROCYCLES AND THEIR USE” (BLOSSOMHILL THERAPEUTICS, INC., priority 2020, published 2023)
